Test results: patent US20240252488A1 (KOREA RESEARCH INSTITUTE OF CHEMICAL TECHNOLOGY, priority 2020, published 2024)

Columns and labels:
FADD−/− Jurkat cells = experiment: Necroptosis inhibition assay, TNF-α-induced necroptosis (CellTiter-Glo 2.0); format: cell-based, human; details: TNF-α 15 ng/mL, FADD−/− Jurkat cells; for Necroptosis inhibition assay (Rescue %) 1 μM: compound 1 μM; for Necroptosis inhibition assay (Rescue %) 10 μM: compound 10 μM
Outline: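 Luminescent ATP measurement gave viability, from which cytotoxicity and necroptosis inhibition rate were derived. Before that, cells (5.0×10^5 cells/mL) saw compound at 0.1, 1 or 10 μM final for 30 minutes at room temperature, then TNF-α (15 ng/mL final) for 20 to 24 hours at 37° C.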

MLKL [1] = target: T1, MLKL (Homo sapiens, UniProt Q8NB16); experiment: Measurement of binding affinity with MLKL receptor (competitive binding assay, Kd); parameters: made in house; host or cells: HEK 293 cell line (T7 phage in E. coli BL21-derived host is also described)
T1 sequence (Q8NB16 1-471): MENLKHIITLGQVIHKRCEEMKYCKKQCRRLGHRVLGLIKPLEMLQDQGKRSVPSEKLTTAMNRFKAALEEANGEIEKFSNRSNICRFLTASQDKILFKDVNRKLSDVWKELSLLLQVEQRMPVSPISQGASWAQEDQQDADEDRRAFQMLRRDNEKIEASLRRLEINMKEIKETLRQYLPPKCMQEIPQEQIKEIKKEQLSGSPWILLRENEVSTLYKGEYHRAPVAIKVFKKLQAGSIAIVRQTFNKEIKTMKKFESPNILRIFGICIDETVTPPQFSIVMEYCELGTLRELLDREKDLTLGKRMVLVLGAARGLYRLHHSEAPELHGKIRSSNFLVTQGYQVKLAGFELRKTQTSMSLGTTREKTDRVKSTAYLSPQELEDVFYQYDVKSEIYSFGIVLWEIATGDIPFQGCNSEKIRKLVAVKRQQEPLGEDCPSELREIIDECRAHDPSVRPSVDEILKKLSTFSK
Outline: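 HEK 293-expressed, DNA-tagged MLKL; ligand beads blocked with biotin and SeaBlock/1% BSA/0.05% Tween 20/1 mM DTT buffer. Cpd from 111× DMSO stock, 0.9% DMSO final. Eluted kinase by qPCR → Kd.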

MLKL [2] = target: T1, MLKL; experiment: MLKL degradation assay in HepG2 cell line (western blot); format: cell-based; parameters: endogenous in cells; host or cells: HepG2 or HaCaT; details: cell line not given; for Degradation assay (Degradation %) 1 μM: compound 1 μM; for Degradation assay (Degradation %) 10 μM: compound 10 μM
Outline: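 Cells seeded, next day medium swapped for compound-containing medium (final 1 or 10 μM) and incubated 20-24 h at 37 °C. Lysates in RIPA with protease/phosphatase inhibitors were protein-matched by BCA, run on SDS-PAGE and immunoblotted for MLKL.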

SMILES | Kd (MLKL [1]) [nM] | Degradation assay (Degradation %) 1 μM (MLKL [2]) [%] | Degradation assay (Degradation %) 10 μM (MLKL [2]) [%] | Necroptosis inhibition assay (Rescue %) 1 μM (FADD−/− Jurkat cells) [%] | Necroptosis inhibition assay (Rescue %) 10 μM (FADD−/− Jurkat cells) [%]
Nc1ncc(-c2cnn(C3CCN(C(=O)CCC4CCN(C(=O)C5CCN(c6cccc7c6C(=O)N(C6CCC(=O)NC6=O)C7=O)CC5)CC4)CC3)c2)nc1C(=O)O[C@@H](C(=O)Nc1ccc(F)cc1)c1ccccc1 (stereo partly drawn) [TDH-417, (R)-2-((4-fluorophenyl)amino)-2-oxo-1-phenylethyl 3-amino-6-(1-(1-(3-(1-(1-(2-(2,6-dioxopiperidin-3-yl)-1,3-dioxoisoindolin-4-yl)piperidine-4-carbonyl)piperidin-4-yl)propanoyl)piperidin-4-yl)-1H-pyrazol-4-yl)pyrazine-2-carboxylate] | 3.5 | 87.84 | 63.85 | 24.41 | 14.37
Nc1ncc(-c2cnn(C3CCN(C(=O)CCC4CCN(C(=O)C5CCN(c6ccc7c(c6)C(=O)N(C6CCC(=O)NC6=O)C7=O)CC5)CC4)CC3)c2)nc1C(=O)O[C@@H](C(=O)Nc1ccc(F)cc1)c1ccccc1 (stereo partly drawn) [TDH-418, (R)-2-((4-fluorophenyl)amino)-2-oxo-1-phenylethyl 3-amino-6-(1-(1-(3-(1-(1-(2-(2,6-dioxopiperidin-3-yl)-1,3-dioxoisoindolin-5-yl)piperidine-4-carbonyl)piperidin-4-yl)propanoyl)piperidin-4-yl)-1H-pyrazol-4-yl)pyrazine-2-carboxylate] | 4 | 79.05 | 58.33 | 28.11 | 17.31
Nc1ncc(-c2cnn(C3CCN(C(=O)CCC4CCN(c5cccc6c5C(=O)N(C5CCC(=O)NC5=O)C6=O)CC4)CC3)c2)nc1C(=O)O[C@@H](C(=O)Nc1ccc(F)cc1)c1ccccc1 (stereo partly drawn) [TDH-419, (R)-2-((4-fluorophenyl)amino)-2-oxo-1-phenylethyl 3-amino-6-(1-(1-(3-(1-(2-(2,6-dioxopiperidin-3-yl)-1,3-dioxoisoindolin-4-yl)piperidin-4-yl)propanoyl)piperidin-4-yl)-1H-pyrazol-4-yl)pyrazine-2-carboxylate] | 5.9 | 82.06 | 64.50 | 26.56 | 18.52
Nc1ncc(-c2cnn(C3CCN(C(=O)CCC4CCN(c5ccc6c(c5)C(=O)N(C5CCC(=O)NC5=O)C6=O)CC4)CC3)c2)nc1C(=O)O[C@@H](C(=O)Nc1ccc(F)cc1)c1ccccc1 (stereo partly drawn) [TDH-420, (R)-2-((4-fluorophenyl)amino)-2-oxo-1-phenylethyl 3-amino-6-(1-(1-(3-(1-(2-(2,6-dioxopiperidin-3-yl)-1,3-dioxoisoindolin-5-yl)piperidin-4-yl)propanoyl)piperidin-4-yl)-1H-pyrazol-4-yl)pyrazine-2-carboxylate] | 10 | 74.57 | 51.38 | 8.39 | 2.00
Nc1ncc(-c2cnn(C3CCN(C(=O)CCC4CCN(C(=O)CNc5cccc6c5C(=O)N(C5CCC(=O)NC5=O)C6=O)CC4)CC3)c2)nc1C(=O)O[C@@H](C(=O)Nc1ccc(F)cc1)c1ccccc1 (stereo partly drawn) [TDH-421, (R)-2-((4-fluorophenyl)amino)-2-oxo-1-phenylethyl 3-amino-6-(1-(1-(3-(1-((2-(2,6-dioxopiperidin-3-yl)-1,3-dioxoisoindolin-4-yl)glycyl)piperidin-4-yl)propanoyl)piperidin-4-yl)-1H-pyrazol-4-yl)pyrazine-2-carboxylate] | 5.3 | 86.78 | 86.81 | 37.14 | 35.74
Nc1ncc(-c2cnn(C3CCN(C(=O)CCC4CCN(C(=O)CNc5ccc6c(c5)C(=O)N(C5CCC(=O)NC5=O)C6=O)CC4)CC3)c2)nc1C(=O)O[C@@H](C(=O)Nc1ccc(F)cc1)c1ccccc1 (stereo partly drawn) [TDH-422, (R)-2-((4-fluorophenyl)amino)-2-oxo-1-phenylethyl 3-amino-6-(1-(1-(3-(1-((2-(2,6-dioxopiperidin-3-yl)-1,3-dioxoisoindolin-5-yl)glycyl)piperidin-4-yl)propanoyl)piperidin-4-yl)-1H-pyrazol-4-yl)pyrazine-2-carboxylate] | 4.1 | 91.95 | 89.12 | 50.21 | 40.34

Now from value to compound, other results behind:

Kd (MLKL [1]) [nM] | Degradation assay (Degradation %) 1 μM (MLKL [2]) [%] | Degradation assay (Degradation %) 10 μM (MLKL [2]) [%] | SMILES | Necroptosis inhibition assay (Rescue %) 1 μM (FADD−/− Jurkat cells) [%] | Necroptosis inhibition assay (Rescue %) 10 μM (FADD−/− Jurkat cells) [%]
0.34 | 50.12 | 88.68 | Nc1ncc(-c2cnn(C3CCN(CC4CCN(CC5CCN(C(=O)COc6ccc7c(c6)C(=O)N(C6CCC(=O)NC6=O)C7=O)CC5)CC4)CC3)c2)nc1C(=O)O[C@@H](C(=O)Nc1ccc(F)cc1)c1ccccc1 (stereo partly drawn) [TDH-425, (R)-2-((4-fluorophenyl)amino)-2-oxo-1-phenylethyl 3-amino-6-(1-(1-((1-((1-(2-((2-(2,6-dioxopiperidin-3-yl)-1,3-dioxoisoindolin-5-yl)oxy)acetyl)piperidin-4-yl)methyl)piperidin-4-yl)methyl)piperidin-4-yl)-1H-pyrazol-4-yl)pyrazine-2-carboxylate] | 67.90 | 
1.2 | 18.62 | 57.41 | Nc1ncc(-c2cnn(C3CCN(CC4CCN(CC5CCN(C(=O)CNc6ccc7c(c6)C(=O)N(C6CCC(=O)NC6=O)C7=O)CC5)CC4)CC3)c2)nc1C(=O)O[C@@H](C(=O)Nc1ccc(F)cc1)c1ccccc1 (stereo partly drawn) [TDH-426, (R)-2-((4-fluorophenyl)amino)-2-oxo-1-phenylethyl 3-amino-6-(1-(1-((1-((1-((2-(2,6-dioxopiperidin-3-yl)-1,3-dioxoisoindolin-5-yl)glycyl)piperidin-4-yl)methyl)piperidin-4-yl)methyl)piperidin-4-yl)-1H-pyrazol-4-yl)pyrazine-2-carboxylate] | 55.42 | 
2.4 | 75.94 | 59.59 | Nc1ncc(-c2cnn(C3CCN(C(=O)CCC4CCN(C(=O)C5CN(c6cccc7c6C(=O)N(C6CCC(=O)NC6=O)C7=O)C5)CC4)CC3)c2)nc1C(=O)O[C@@H](C(=O)Nc1ccc(F)cc1)c1ccccc1 (stereo partly drawn) [TDH-427, (R)-2-((4-fluorophenyl)amino)-2-oxo-1-phenylethyl 3-amino-6-(1-(1-(3-(1-(1-(2-(2,6-dioxopiperidin-3-yl)-1,3-dioxoisoindolin-4-yl)azetidine-3-carbonyl)piperidin-4-yl)propanoyl)piperidin-4-yl)-1H-pyrazol-4-yl)pyrazine-2-carboxylate] | 5.57 | 9.73
4.1 | 58.66 | 85.95 | Nc1ncc(-c2cnn(C3CCN(C(=O)CCC4CCN(C(=O)C5CN(c6ccc7c(c6)C(=O)N(C6CCC(=O)NC6=O)C7=O)C5)CC4)CC3)c2)nc1C(=O)O[C@@H](C(=O)Nc1ccc(F)cc1)c1ccccc1 (stereo partly drawn) [TDH-428, (R)-2-((4-fluorophenyl)amino)-2-oxo-1-phenylethyl 3-amino-6-(1-(1-(3-(1-(1-(2-(2,6-dioxopiperidin-3-yl)-1,3-dioxoisoindolin-5-yl)azetidine-3-carbonyl)piperidin-4-yl)propanoyl)piperidin-4-yl)-1H-pyrazol-4-yl)pyrazine-2-carboxylate] | 27.27 | 9.58
2.3 | 77.13 | 63.72 | Nc1ncc(-c2cnn(C3CCN(C(=O)CCC4CCN(C(=O)CC5CCN(c6cccc7c6C(=O)N(C6CCC(=O)NC6=O)C7=O)CC5)CC4)CC3)c2)nc1C(=O)O[C@@H](C(=O)Nc1ccc(F)cc1)c1ccccc1 (stereo partly drawn) [TDH-429, (R)-2-((4-fluorophenyl)amino)-2-oxo-1-phenylethyl 3-amino-6-(1-(1-(3-(1-(2-(1-(2-(2,6-dioxopiperidin-3-yl)-1,3-dioxoisoindolin-4-yl)piperidin-4-yl)acetyl)piperidin-4-yl)propanoyl)piperidin-4-yl)-1H-pyrazol-4-yl)pyrazine-2-carboxylate] | 18.34 | 11.03
